The results in this text go back to patent US20240376094A2, “SELECTIVE BCL-XL PROTAC COMPOUNDS AND METHODS OF USE” (Les Laboratoires Servier, priority 2021, published 2024).

Common to all, as to assay type: cell-based
For assay [1], the system named is MOLT-4 cells. Nature of the assay: MOLT-4 cell viability, MTT assay. Particulars: Homo sapiens, MOLT-4, 48 h. An excerpt:
The MTT colorimetric assay is based on the mitochondrial reduction of tetrazolium salt by living cells. The viable cell number is proportional to the production of formazan salts, which can be read spectrophotometrically at 540 nm. The CTG luminescent assay (CellTiter GLO, Promega) is based on a reagent which lyses cells and measures total adenosine triphosphate (ATP) content. The viable cell number is proportional to the production of ATP.
MOLT-4 cells were purchased from ATCC and cultivated in RPMI 1640 supplemented with 10% heat inactivated fetal bovine serum, penicillin (100 IU/mi), streptomycin (100 μg/ml) and L-glutamine (2 mM). Cells were cultured at 37° C. in a humidified atmosphere containing 5% […].
For MTT assay, cells were seeded in 96 microwell plates (150 μL per well) and exposed to the compounds for 48 h (3.16 fold serially diluted; 9 concentrations each, triplicates). At the end of incubation time, 15 μL of MTT solution (5 mg/ml) were added per well and the cells were incubated for another 4 h. Then, 100 μL of 10% Sodium Dodecyl Sulfate (SDS)/HCl 10 mM were added per well and the plate was incubated overnight, before measurement of optical density at 540 nm.
IC50, were calculated using standard four-parametric curve fitting. IC50 is defined as the compound concentration at which the MTT or CTG signal is reduced to 50% of that measured for the control. Results shown in Table 14 represent the mean of at least 2 independent experiments.
For orientation: Tetrazolium dyes change colour on reduction, which living cells bring about.

The subject of assay [2] is MOLT-4 cells. As to the kind of experiment: MOLT-4 cell viability, CTG assay. The conditions noted are these: Homo sapiens, MOLT-4, 48 h. In outline:
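Viability read as total ATP luminescence (CTG) after 48 h compound treatment, 11 points at 5-fold spacing in triplicate, cells in RPMI 1640/10% FBS. IC50 is the concentration halving signal relative to control, four-parameter fit, averaged over at least 2 experiments.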

Assay [3] concerns the target T1, Bcl-xL (Homo sapiens, UniProt Q07817).
T1 construct: Measured levels of Bcl-xL protein of HCT116 cells treated with the tested compounds; host or cells: HCT116
Nature of the assay: HCT116 Bcl-xL degradation, capillary-based immunoassay (WES). Particulars: for remaining activity at 0.01 µM / remaining activity at 0.1 µM: HCT-116, 24 h, % of untreated cells; for remaining activity at 0.01 µM: HCT116, 10 nM; for remaining activity at 0.1 µM: HCT116, 100 nM. In outline: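 Bcl-xL protein level by capillary WES immunoassay in HCT116 lysates, as % of untreated after cofilin normalization. Compound exposure was 24 h at 10 and 100 nM and/or a 9-point series, in quadruplicate. Four-parameter fitting gave the DC50.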

T1 sequence (Q07817 whole entry): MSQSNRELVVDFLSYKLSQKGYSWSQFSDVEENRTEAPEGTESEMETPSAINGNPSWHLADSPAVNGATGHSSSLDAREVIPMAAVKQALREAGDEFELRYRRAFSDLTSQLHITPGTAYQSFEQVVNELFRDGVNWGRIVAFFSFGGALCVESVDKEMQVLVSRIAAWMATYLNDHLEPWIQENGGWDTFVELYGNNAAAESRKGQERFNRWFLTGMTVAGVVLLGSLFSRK

Consider `Cc1c(Nc2nc3ccccc3s2)nnc2c1CCCN2c1ccc(-c2cnn(CC34CC5(C)CC(C)(C3)CC(OCCN(C)CCOCCNc3cccc6c3C(=O)N(C3CCC(=O)NC3=O)C6=O)(C5)C4)c2C)c(C(=O)O)n1` (stereo not drawn) [Example 9, 6-[3-(1,3-benzothiazol-2-ylamino)-4-methyl-6,7-dihydro-5H-pyrido[2,3-c]pyridazin-8-yl]-3-[1-[[3-[2-[2-[2-[[2-(2,6-dioxo-3-piperidyl)-1,3-dioxo-isoindolin-4-yl]amino]ethoxy]ethyl-methyl-amino]ethoxy]-5,7-dimethyl-1-adamantyl]methyl]-5-methyl-pyrazol-4-yl]pyridine-2-carboxylic acid], for which 0.00521 µM corresponded to half-maximal inhibition in assay [1] (IC50). In addition, the IC50 (as a rule, the concentration that gives 50% inhibition) in assay [2] turned out to be 0.0129 µM. Further, in assay [3] (HCT116, 24 h, 9-point serial dilution), it took 0.0105 µM to reach half-maximal degradation (DC50). Further, in assay [3], the remaining activity (usually the signal under treatment as a percentage of the control signal) at 0.01 µM was determined as 61% and the remaining activity at 0.1 µM came to 41%.

`Cc1c(Nc2nc3ccccc3s2)nnc2c1CCCN2c1ccc(-c2cnn(CC34CC5(C)CC(C)(C3)CC(OCCN(C)CCOCCOCCOCCNc3cccc6c3C(=O)N(C3CCC(=O)NC3=O)C6=O)(C5)C4)c2C)c(C(=O)O)n1` (stereo not drawn) [Example 11, 6-[3-(1,3-benzothiazol-2-ylamino)-4-methyl-6,7-dihydro-5H-pyrido[2,3-c]pyridazin-8-yl]-3-[1-[[3-[2-[2-[2-[2-[2-[[2-(2,6-dioxo-3-piperidyl)-1,3-dioxo-isoindolin-4-yl]amino]ethoxy]ethoxy]ethoxy]ethyl-methyl-amino]ethoxy]-5,7-dimethyl-1-adamantyl]methyl]-5-methyl-pyrazol-4-yl]pyridine-2-carboxylic acid] registered an IC50 in assay [1] of 0.00429 µM. This compound returned a 50% inhibitory concentration (IC50) in assay [2] of 0.0203 µM. Further, in assay [3], the remaining activity at 0.01 µM was 83% and the remaining activity at 0.1 µM came out at 60%.

As to `CNCC#Cc1ccc(OCCCc2sc(N(CCCc3cn(CCCCCCCCNC(=O)COc4cccc5c4C(=O)N(C4CCC(=O)NC4=O)C5=O)nn3)c3cc(C)c(Nc4nc5ccccc5s4)nn3)nc2C(=O)O)c(F)c1` (stereo not drawn) [Example 30, 2-[[6-(1,3-benzothiazol-2-ylamino)-5-methyl-pyridazin-3-yl]-[3-[1-[8-[[2-[2-(2,6-dioxo-3-piperidyl)-1,3-dioxo-isoindolin-4-yl]oxyacetyl]amino]octyl]triazol-4-yl]propyl]amino]-5-[3-[2-fluoro-4-[3-(methylamino)prop-1-ynyl]phenoxy]propyl]thiazole-4-carboxylic acid], the half-maximal inhibitory concentration (IC50) in assay [1] worked out at 0.133 µM; in assay [2], 0.477 µM. For the same compound, the remaining activity at 0.01 µM in assay [3] was found to be 118%. Further, the remaining activity at 0.1 µM in assay [3] is 73%.

As for `CNCC#Cc1ccc(OCCCc2sc(N(CCCc3cn(CCOCCOCCOCCOCCOCCC(=O)N[C@H](C(=O)N4C[C@H](O)C[C@H]4C(=O)NCc4ccc(-c5scnc5C)cc4)C(C)(C)C)nn3)c3cc(C)c(Nc4nc5ccccc5s4)nn3)nc2C(=O)O)c(F)c1` [Example 29, 2-[[6-(1,3-benzothiazol-2-ylamino)-5-methyl-pyridazin-3-yl]-[3-[1-[2-[2-[2-[2-[2-[3-[[(1S)-1-[(2S,4R)-4-hydroxy-2-[[4-(4-methylthiazol-5-yl)phenyl]methylcarbamoyl]pyrrolidine-1-carbonyl]-2,2-dimethyl-propyl]amino]-3-oxo-propoxy]ethoxy]ethoxy]ethoxy]ethoxy]ethyl]triazol-4-yl]propyl]amino]-5-[3-[2-fluoro-4-[3-(methylamino)prop-1-ynyl]phenoxy]propyl]thiazole-4-carboxylic acid], the IC50 in assay [1] stood at 0.875 µM; in assay [2] it was 1.63 µM. In addition, in assay [3], the remaining activity at 0.01 µM turned out to be 64%. Besides, the remaining activity at 0.1 µM in assay [3] is 67%.

`Cc1ncsc1-c1ccc(CNC(=O)[C@@H]2C[C@@H](O)CN2C(=O)[C@@H](NC(=O)CCC(=O)N2CCN(CC#Cc3ccc(OCCCc4sc(N5CCCc6c5nnc(Nc5nc7ccccc7s5)c6C)nc4C(=O)O)c(F)c3)CC2)C(C)(C)C)cc1` [Example 21, 2-[3-(1,3-benzothiazol-2-ylamino)-4-methyl-6,7-dihydro-5H-pyrido[2,3-c]pyridazin-8-yl]-5-[3-[2-fluoro-4-[3-[4-[4-[[(1S)-1-[(2S,4R)-4-hydroxy-2-[[4-(4-methylthiazol-5-yl)phenyl]methylcarbamoyl]pyrrolidine-1-carbonyl]-2,2-dimethyl-propyl]amino]-4-oxo-butanoyl]piperazin-1-yl]prop-1-ynyl]phenoxy]propyl]thiazole-4-carboxylic acid] had an IC50 in assay [1] of 0.0115 µM. Moreover, half-maximal inhibition in assay [2] (IC50) was put at 0.0236 µM. In assay [3], the remaining activity at 0.01 µM came to 73% and the remaining activity at 0.1 µM came to 35%.

For the compound `Cc1c(Nc2nc3ccccc3s2)nnc2c1CCCN2c1ccc(-c2cnn(CC34CC5(C)CC(C)(C3)CC(OCCN(C)CCOCCOCCOCCOCCOCCNc3cccc6c3C(=O)N(C3CCC(=O)NC3=O)C6=O)(C5)C4)c2C)c(C(=O)O)n1` (stereo not drawn) [Example 13, 6-[3-(1,3-benzothiazol-2-ylamino)-4-methyl-6,7-dihydro-5H-pyrido[2,3-c]pyridazin-8-yl]-3-[1-[[3-[2-[2-[2-[2-[2-[2-[2-[[2-(2,6-dioxo-3-piperidyl)-1,3-dioxo-isoindolin-4-yl]amino]ethoxy]ethoxy]ethoxy]ethoxy]ethoxy]ethyl-methyl-amino]ethoxy]-5,7-dimethyl-1-adamantyl]methyl]-5-methyl-pyrazol-4-yl]pyridine-2-carboxylic acid], the IC50 in assay [1] is 0.0135 µM. Besides, the half-maximal inhibitory concentration (IC50) in assay [2] is 0.0339 µM. For the same compound, in assay [3], the remaining activity at 0.01 µM is 79% and the remaining activity at 0.1 µM came out at 57%.

As for `Cc1c(Nc2nc3ccccc3s2)nnc2c1CCCN2c1ccc(-c2cnn(CC34CC5(C)CC(C)(C3)CC(OCCN(C)CCCCCCOc3ccc6c(c3)C(=O)N(C3CCC(=O)NC3=O)C6=O)(C5)C4)c2C)c(C(=O)O)n1` (stereo not drawn) [Example 14, 6-[3-(1,3-benzothiazol-2-ylamino)-4-methyl-6,7-dihydro-5H-pyrido[2,3-c]pyridazin-8-yl]-3-[1-[[3-[2-[6-[2-(2,6-dioxo-3-piperidyl)-1,3-dioxo-isoindolin-5-yl]oxyhexyl-methyl-amino]ethoxy]-5,7-dimethyl-1-adamantyl]methyl]-5-methyl-pyrazol-4-yl]pyridine-2-carboxylic acid], the IC50 in assay [1] came out at 0.00115 µM. Moreover, in assay [2], the midpoint of inhibition, the IC50, lay at 0.00351 µM. In addition, in assay [3], the remaining activity at 0.01 µM is 81% and the remaining activity at 0.1 µM worked out at 86%.

In the case of `Cc1cc(N(CCCCCn2cc(COCCOCCNC(=O)COc3cccc4c3C(=O)N(C3CCC(=O)NC3=O)C4=O)nn2)c2ccc(-c3cnn(CC45CC6(C)CC(C)(C4)CC(OCCN(C)C)(C6)C5)c3C)c(C(=O)O)n2)nnc1Nc1nc2ccccc2s1` (stereo not drawn) [Example 65, 6-[[6-(1,3-benzothiazol-2-ylamino)-5-methyl-pyridazin-3-yl]-[5-[4-[2-[2-[[2-[2-(2,6-dioxo-3-piperidyl)-1,3-dioxo-isoindolin-4-yl]oxyacetyl]amino]ethoxy]ethoxymethyl]triazol-1-yl]pentyl]amino]-3-[1-[[3-[2-(dimethylamino)ethoxy]-5,7-dimethyl-1-adamantyl]methyl]-5-methyl-pyrazol-4-yl]pyridine-2-carboxylic acid], the results for the IC50 in assay [1] and in assay [2] were 0.156 µM and 0.14 µM, respectively. In assay [3], the remaining activity at 0.01 µM is 90%. The remaining activity at 0.1 µM in assay [3] worked out at 78%.
